Drawing on patent US8278452B2, “Heterocyclic compounds and compositions as c-kit and PDGFR kinase inhibitors” (IRM LLC, priority 2008, dated 2012), this text covers IC50 for 31 compounds.

In this test the test system is Mo7e cells which endogenously express c-kit. Description: Mo7e assay: inhibition of SCF dependent proliferation (MTT). Format: cell-based. The conditions noted are these: Table 1; SCF stimulated Mo7e cells, 48 hours, MTT. As for the experimental part: The compounds described herein are tested for inhibition of SCF dependent proliferation using Mo7e cells which endogenously express c-kit in a 96 well format. Two-fold serially diluted test compounds (Cmax=10 μM) are evaluated for their antiproliferative activity of Mo7e cells stimulated with human recombinant SCF. After 48 hours of incubation at 37° C., cell viability is measured by using a MTT colorimetric assay from Promega. IC50 values for compounds of the invention are quoted in table 1, supra.
One may read the IC50 as the concentration that gives 50% inhibition. In turn, `Cc1cc2c(cn1)cc(-c1cc(Nc3noc([C@@H]4CCCCO4)n3)ccc1C)c(=O)n2C` [Compound A100, 1,7-dimethyl-3-[2-methyl-5-({5-[(2S)-oxan-2-yl]-1,2,4-oxadiazol-3-yl}amino)phenyl]-1,2-dihydro-1,6-naphthyridin-2-one] yielded an IC50 of 70 nM. In other words, the double-digit nanomolar range.
In turn, `Cc1cc2c(cn1)cc(-c1cc(Nc3noc(-c4ccc(CO)cc4)n3)ccc1C)c(=O)n2C` [Compound A43, 3-[5-({5-[4-(hydroxymethyl)phenyl]-1,2,4-oxadiazol-3-yl}amino)-2-methylphenyl]-1,7-dimethyl-1,2-dihydro-1,6-naphthyridin-2-one] came in with a half-inhibitory concentration (IC50) of 386 nM.
For `Cc1cc2c(cn1)cc(-c1cc(Nc3noc([C@@H]4CCCO4)n3)ccc1C)c(=O)n2C` [Compound A77, (S)-1,7-dimethyl-3-(2-methyl-5-(5-(tetrahydrofuran-2-yl)-1,2,4-oxadiazol-3-ylamino)phenyl)-1,6-naphthyridin-2(1H)-one], 27 nM corresponded to half-maximal inhibition (IC50).
For the compound `Cc1cccc(-c2nc(Nc3ccc(C)c(-c4cc5cnc(C)cc5n(C)c4=O)c3)no2)c1` [Compound A17, 1,7-dimethyl-3-(2-methyl-5-{[5-(3-methylphenyl)-1,2,4-oxadiazol-3-yl]amino}phenyl)-1,2-dihydro-1,6-naphthyridin-2-one], the IC50 was determined as 241 nM.
The figure for `Cc1cc2c(cn1)cc(-c1cc(Nc3nnc(-c4ccc(Cl)cc4)[nH]3)ccc1C)c(=O)n2C` [Compound C2, 3-(5-{[5-(4-chlorophenyl)-4H-1,2,4-triazol-3-yl]amino}-2-methylphenyl)-1,7-dimethyl-1,2-dihydro-1,6-naphthyridin-2-one] is 256 nM.
Turning to `Cc1cc2c(cn1)cc(-c1cc(Nc3noc(C4(CO)CC4)n3)ccc1C)c(=O)n2C` [Compound A69, 3-(5-(5-(1-(hydroxymethyl)cyclopropyl)-1,2,4-oxadiazol-3-ylamino)-2-methylphenyl)-1,7-dimethyl-1,6-naphthyridin-2(1H)-one], it took 148 nM to reach half-maximal inhibition (IC50).
Turning to `Cc1cc2c(cn1)cc(-c1cc(Nc3nnc(C(C)C)o3)ccc1C)c(=O)n2C` [Compound B7, 1,7-dimethyl-3-(2-methyl-5-{[5-(propan-2-yl)-1,3,4-oxadiazol-2-yl]amino}phenyl)-1,2-dihydro-1,6-naphthyridin-2-one], the IC50 worked out at 162 nM.
As to `Cc1cc2c(cn1)cc(-c1cc(Nc3noc(C4CC(=O)C4)n3)ccc1C)c(=O)n2C` [Compound A72, 1,7-dimethyl-3-(2-methyl-5-{[5-(3-oxocyclobutyl)-1,2,4-oxadiazol-3-yl]amino}phenyl)-1,2-dihydro-1,6-naphthyridin-2-one], it took 204 nM to reach half-maximal inhibition (IC50).
The same measure for `Cc1cc2c(cn1)cc(-c1cc(Nc3noc([C@H]4CCCO4)n3)ccc1C)c(=O)n2C` [Compound A75, 1,7-dimethyl-3-[2-methyl-5-({5-[(2R)-oxolan-2-yl]-1,2,4-oxadiazol-3-yl}amino)phenyl]-1,2-dihydro-1,6-naphthyridin-2-one]: 40 nM; for `Cc1cncc(-c2nc(Nc3ccc(C)c(-c4cc5cnc(C)cc5n(C)c4=O)c3)no2)c1` [Compound A53, 1,7-dimethyl-3-(2-methyl-5-{[5-(5-methylpyridin-3-yl)-1,2,4-oxadiazol-3-yl]amino}phenyl)-1,2-dihydro-1,6-naphthyridin-2-one]: 427 nM; for `Cc1cc2c(cn1)cc(-c1cc(Nc3noc(-c4ccc(F)cc4F)n3)ccc1C)c(=O)n2C` [Compound A61, 3-(5-{[5-(2,4-difluorophenyl)-1,2,4-oxadiazol-3-yl]amino}-2-methylphenyl)-1,7-dimethyl-1,2-dihydro-1,6-naphthyridin-2-one]: 97 nM.
`Cc1ccc(-c2nnc(Nc3ccc(C)c(-c4cc5cnc(C)cc5n(C)c4=O)c3)[nH]2)cc1` [Compound C4, 1,7-dimethyl-3-(2-methyl-5-{[5-(4-methylphenyl)-4H-1,2,4-triazol-3-yl]amino}phenyl)-1,2-dihydro-1,6-naphthyridin-2-one] had a 50% inhibitory concentration (IC50) of 288 nM. Compared with the last compound, the IC50 is about 3-fold higher.
For the compound `Cc1cc2c(cn1)cc(-c1cc(Nc3noc(C(O)C(C)C)n3)ccc1C)c(=O)n2C` (stereo in doubt) [Compound A93, 3-[5-({5-[(1S)-1-hydroxy-2-methylpropyl]-1,2,4-oxadiazol-3-yl}amino)-2-methylphenyl]-1,7-dimethyl-1,2-dihydro-1,6-naphthyridin-2-one], the IC50 came out at 283 nM.
In the case of `Cc1cc2c(cn1)cc(-c1cc(Nc3noc(-c4ccc(C(C)(F)F)nc4)n3)ccc1C)c(=O)n2C` [Compound A88, 3-[5-({5-[6-(1,1-difluoroethyl)pyridin-3-yl]-1,2,4-oxadiazol-3-yl}amino)-2-methylphenyl]-1,7-dimethyl-1,2-dihydro-1,6-naphthyridin-2-one], the IC50 turned out to be 259 nM.
For the compound `CCC(C)c1nc(Nc2ccc(C)c(-c3cc4cnc(C)cc4n(C)c3=O)c2)no1` (stereo not shown) [Compound A29, 3-(5-{[5-(butan-2-yl)-1,2,4-oxadiazol-3-yl]amino}-2-methylphenyl)-1,7-dimethyl-1,2-dihydro-1,6-naphthyridin-2-one], the half-inhibitory concentration (IC50) amounted to 58 nM.
The figure for `Cc1cc2c(cn1)cc(-c1cc(Nc3noc(-c4cccc(O)n4)n3)ccc1C)c(=O)n2C` [Compound A42, 3-(5-{[5-(6-hydroxypyridin-2-yl)-1,2,4-oxadiazol-3-yl]amino}-2-methylphenyl)-1,7-dimethyl-1,2-dihydro-1,6-naphthyridin-2-one] is 265 nM.
As for `Cc1cc2c(cn1)cc(-c1cc(Nc3noc(C4CCOCC4)n3)ccc1C)c(=O)n2C` [Compound A33, 1,7-dimethyl-3-(2-methyl-5-{[5-(oxan-4-yl)-1,2,4-oxadiazol-3-yl]amino}phenyl)-1,2-dihydro-1,6-naphthyridin-2-one], the midpoint of inhibition, the IC50, lay at 444 nM.
The compound `Cc1cc2c(cn1)cc(-c1cc(Nc3noc(C4CCCN4C)n3)ccc1C)c(=O)n2C` (stereo not shown) [Compound A23, 1,7-dimethyl-3-(2-methyl-5-{[5-(1-methylpyrrolidin-2-yl)-1,2,4-oxadiazol-3-yl]amino}phenyl)-1,2-dihydro-1,6-naphthyridin-2-one] returned an IC50 of 208 nM.
On to `COc1cc(C)ccc1-c1nc(Nc2ccc(C)c(-c3cc4cnc(C)cc4n(C)c3=O)c2)no1` [Compound A80, 3-(5-{[5-(2-methoxy-4-methylphenyl)-1,2,4-oxadiazol-3-yl]amino}-2-methylphenyl)-1,7-dimethyl-1,2-dihydro-1,6-naphthyridin-2-one], for which the IC50 turned out to be 338 nM.
`Cc1cc2c(cn1)cc(-c1cc(Nc3noc(-c4ccc(CN)cc4)n3)ccc1C)c(=O)n2C` [Compound A90, 3-[5-({5-[4-(aminomethyl)phenyl]-1,2,4-oxadiazol-3-yl}amino)-2-methylphenyl]-1,7-dimethyl-1,2-dihydro-1,6-naphthyridin-2-one] showed an IC50 of 434 nM. This IC50 and that of the compound before are within 1.5-fold of each other.
In turn, `Cc1cc2c(cn1)cc(-c1cc(Nc3nc(-c4ccccc4)no3)ccc1C)c(=O)n2C` [Compound E1, 1,7-dimethyl-3-{2-methyl-5-[(3-phenyl-1,2,4-oxadiazol-5-yl)amino]phenyl}-1,2-dihydro-1,6-naphthyridin-2-one] showed a concentration for half-maximal inhibition (IC50) of 423 nM.
With `Cc1cc2c(cn1)cc(-c1cc(Nc3nsc(-c4ccccc4)n3)ccc1C)c(=O)n2C` [Compound G1, 1,7-dimethyl-3-(2-methyl-5-(5-phenyl-1,2,4-thiadiazol-3-ylamino)phenyl)-1,6-naphthyridin-2(1H)-one], the IC50 came to 733 nM.
`Cc1cc2c(cn1)cc(-c1cc(Nc3noc(-c4ccccn4)n3)ccc1C)c(=O)n2C` [Compound A52, 1,7-dimethyl-3-(2-methyl-5-(5-(pyridin-2-yl)-1,2,4-oxadiazol-3-ylamino)phenyl)-1,6-naphthyridin-2(1H)-one]: 68 nM corresponded to half-maximal inhibition (IC50). Against the preceding compound, the IC50 is about 11-fold lower.
Take `Cc1cc2c(cn1)cc(-c1cc(Nc3nnc(-c4cccc(Cl)c4)[nH]3)ccc1C)c(=O)n2C` [Compound C7, 3-(5-{[5-(3-chlorophenyl)-4H-1,2,4-triazol-3-yl]amino}-2-methylphenyl)-1,7-dimethyl-1,2-dihydro-1,6-naphthyridin-2-one]: the IC50 came out at 378 nM. Compared with the last compound, the IC50 is about 5.6-fold higher.
The same measure for `Cc1cc2c(cn1)cc(-c1cc(Nc3noc(C4(C)CC4)n3)ccc1C)c(=O)n2C` [Compound A34, 1,7-dimethyl-3-(2-methyl-5-(5-(1-methylcyclopropyl)-1,2,4-oxadiazol-3-ylamino)phenyl)-1,6-naphthyridin-2(1H)-one]: 83 nM; for `Cc1cc2c(cn1)cc(-c1cc(Nc3noc(C(C)(C)O)n3)ccc1C)c(=O)n2C` [Compound A32, 3-(5-(5-(2-hydroxypropan-2-yl)-1,2,4-oxadiazol-3-ylamino)-2-methylphenyl)-1,7-dimethyl-1,6-naphthyridin-2(1H)-one]: 172 nM; for `Cc1cc2c(cn1)cc(-c1cc(Nc3noc(C4CCCCC4)n3)ccc1C)c(=O)n2C` [Compound A18, 3-{5-[(5-cyclohexyl-1,2,4-oxadiazol-3-yl)amino]-2-methylphenyl}-1,7-dimethyl-1,2-dihydro-1,6-naphthyridin-2-one]: 179 nM.
`CC(=NO)c1cc(Nc2ccc(C)c(-c3cc4cnc(C)cc4n(C)c3=O)c2)no1` [Compound D13] registered an IC50 of 476 nM. Compared with the last compound, the IC50 is about 2.7-fold higher.
The same measure for `Cc1cc2c(cn1)cc(-c1cc(Nc3noc(C4CC(C)(O)C4)n3)ccc1C)c(=O)n2C` (stereo not shown) [Compound A84, 3-(5-{[5-(3-hydroxy-3-methylcyclobutyl)-1,2,4-oxadiazol-3-yl]amino}-2-methylphenyl)-1,7-dimethyl-1,2-dihydro-1,6-naphthyridin-2-one]: 176 nM; for `Cc1cc2c(cn1)cc(-c1cc(Nc3noc(CC(C)(C)O)n3)ccc1C)c(=O)n2C` [Compound A56, 3-(5-(5-(2-hydroxy-2-methylpropyl)-1,2,4-oxadiazol-3-ylamino)-2-methylphenyl)-1,7-dimethyl-1,6-naphthyridin-2(1H)-one]: 230 nM; for `Cc1cc2c(cn1)cc(-c1cc(Nc3noc(C(C)(C)C)n3)ccc1C)c(=O)n2C` [Compound A30, 3-{5-[(5-tert-butyl-1,2,4-oxadiazol-3-yl)amino]-2-methylphenyl}-1,7-dimethyl-1,2-dihydro-1,6-naphthyridin-2-one]: 245 nM.
